{
  "source": "patent US20230390463A1",
  "about": "“TISSUE SCAFFOLDS” (JD BIOMEDICAL SOLUTIONS LTD., priority 2020, published 2023)",
  "key": {"[1]": {"assay": "Hydrophilic-lipophilic balance (HLB)", "format": "physicochemical", "settings": "experimentally determined required HLB range", "source_text": "As understood herein, the term “hydrophilic-lipophilic balance (HLB)” describes the ratio between the size of the hydrophilic and lipophilic regions of a surfactant molecule. The empirically derived formula: […]\nWas introduced for alkyl ethoxylates (Griffin W. C. J. Soc. Cosmet. Chem., 5 (1954), p. 249.) The HLB of more complex surfactant structures is found using a systematic approach based on chemical group assignments (Davies J. T., Rideal E. K. Interfacial Phenomena Academic Press, New York (1961), pp. 371-378):\nHLB=7+Σ(Hydrophile group number)−Σ(lipophile group number)\nA water-in-oil emulsion (w/o) has […]. An oil-in-water (o/w) emulsion has […]. The propensity for formation of a w/o or o/w emulsion is determined by the balance of hydrophobicity and hydrophilicity of the solutions in the mixture. This may be determined using the HLB scale. Oleic phase reagents are assigned an HLB number, determined experimentally, that allows for selection of an appropriate surfactant to cause emulsification with the aqueous phase. […] HLB as understood herein is a semi-quantitative measure of the relative molecular weights of the hydrophilic and lipophilic regions of a surfactant molecule assigned on a scale from 0.5 (extremely lipophilic) to 19.5 (extremely hydrophilic)."}, "[2]": {"settings": "surfactant, cited from earlier work"}, "[3]": {"assay": "Oil carrying capacity (oil fraction at lowest TSI)", "format": "physicochemical", "settings": "decane / MES-NaCl buffer, 0.1% (v/v) surfactant, 37° C.", "source_text": "The proposed system of determining the oil fraction at which optimum emulsion stability occurs, the ‘oil carrying capacity’ (OCC) of the surfactant, is intended as a tool for surfactant selection in a system where the desired oil fraction is known. Equally, it may be used to optimise oil fraction ‘carried’ in the emulsion when a particular surfactant is required. It is a practical tool to be used in conjunction with other metrics, such as HLB, but its simplicity and broad application make it versatile and easy to implement to formulation practice.\nThe oil fraction at the lowest TSI after 15 minutes was identified as the ‘oil carrying capacity’ (OCC) of that surfactant. Further oil/buffer/surfactant mixtures were prepared at 5% oil fractions either side of this minimum (i.e. an initial minimum of 70% oil fraction would be tested then at 65% and 75% oil fraction)."}, "[4]": {"test_system": "h-tert human mesenchymal stem cells", "assay": "Cyto-compatibility of scaffolds (CCK-8, contact and leachable assay)", "format": "cell-based", "settings": "acute (24 h) and chronic (120 h) exposure; surfactant at 0.1% v/v in media", "procedure": "Cylindrical samples were cut with an 8 mm biopsy punch (n=3) were cut from two scaffolds. […] At 24 h (acute response time) and 120 h (chronic response time), 300 μl DMEM/CCK-8 (10:1) was added and incubated for 4 hours at 37° C. before reading absorbance at 450 nm. Two scaffolds of the same composition (D3, D4) from different manufacturing batches (0.1% Tx-165 surfactant, 90% porous, 2:1 fibrin: PVA, 2% fibrinogen) were tested with triplicate samples from each. […] This material is known to be non-cytotoxic, verified with both in vitro and in vivo assays."}, "[5]": {"assay": "Turbiscan emulsion stability (TSI) of decane/buffer emulsions stabilised with surfactant", "format": "physicochemical", "settings": "0.1% (v/v) surfactant, 15 mins after mixing"}, "[6]": {"assay": "Turbiscan emulsion stability (TSI) of decane/buffer emulsions stabilised with surfactant", "format": "physicochemical", "settings": "0.1% (v/v) surfactant, 15 mins after mixing", "source_text": "Stability was herein reported using the Turbiscan™ stability index (TSI). This non-destructive, non-invasive technique gives the stability of the sample over its whole selected height as a function of transmitted and backscattered light compared to the same measurements at the previous timepoint. Kinetic stability is built up over sequential scans. The pattern of change across the height of the sample gives a ‘fingerprint’ characteristic of the mode of destabilisation. TSI is defined in equation 1: […]\nwhere scani is the backscattering value at a given timepoint, scani-1 is the backscattering value from the previous timepoint, h is the height of the scan and H is the total sample height from the first to the last scan. TSI is the sum of the differences between sequential scans and thus represents the stability of the sample over a defined timeframe. TSI reduces with increasing stability.\nStock solutions of surfactants were prepared in 7 ml polystyrene bijou by dispersing 0.1% (v/v) surfactant in decane so that surfactant scaled with oil fraction. These stock solutions were shaken briefly to disperse the surfactants before adding the deionised water. 4 ml mixtures were prepared in triplicate for each surfactant at various oil fractions (50, 60, 70, 80, 90% v/v oil-surfactant). Each sample was vortexed for 1 minute using WhirliMixer™ (Fisherbrand) to homogenise immediately prior to stability measurements.\n3 ml of the sample was pipetted into a borosilicate glass cuvette, taking care to maintain a clean meniscus, and analysed using Turbiscan™ LAB Analyser (Formulation, Toulouse, France) scanning every 30 seconds for a total of 15 minutes.\nTurbiscan stability index (TSI) was plotted for each surfactant as a function of oil fraction in the emulsion preparation, HLB, or time. Lower TSI indicates less change in the transmitted light, or less change in particle size and position.\nStability was measured using the Turbiscan™ static multiple light scattering analyser and expressed using the Turbiscan stability index (TSI) which reflects the change in transmitted and backscattered light across the height of a sample over a period of time. A higher value of TSI reflects poorer stability; a lower value reflects greater stability. However, because TSI measures rate of change, emulsions which break instantly after mixing ceases can display low TSI values.", "remark": "listed apart in the source"}},
  "note": "Read-outs that look alike come from different tables or passages of the source.",
  "data": [
    {"compound": "CCCCCCCCCC", "note": "[decane]", "values": [
      {"measurement": "required HLB of the decane oil phase", "setting": "[1]", "result": "10-13"}
    ]},
    {"compound": "C11-15 pareth-7 [Tergitol 15-S-7]", "values": [
      {"measurement": "HLB", "setting": "[2]", "result": 12.1}
    ]},
    {"compound": "C11-15 pareth-9 [Tergitol 15-S-9]", "values": [
      {"measurement": "HLB", "setting": "[2]", "result": 13.3},
      {"measurement": "HLB", "setting": "[2]; listed as Tergitol T-S-9", "result": "~13"}
    ]},
    {"compound": "C11-15 pareth-15 [Tergitol 15-S-15]", "values": [
      {"measurement": "HLB", "setting": "[2]", "result": 15.4}
    ]},
    {"compound": "Ethylene oxide-propylene oxide copolymer mono(2-ethylhexyl) ether [Ecosurf EH-9]", "values": [
      {"measurement": "HLB", "setting": "[2]", "result": 12.5}
    ]},
    {"compound": "Nonylphenol ethoxylate [Tergitol NP-10]", "values": [
      {"measurement": "HLB", "setting": "[2]", "result": 13.2}
    ]},
    {"compound": "Octylphenol ethoxylate [Triton N-101 reduced]", "values": [
      {"measurement": "HLB", "setting": "[2]", "result": 14.4}
    ]},
    {"compound": "Octylphenol ethoxylate [Triton X-102]", "values": [
      {"measurement": "oil fraction at maximum stability (oil carrying capacity)", "setting": "[3]", "result": 70, "unit": "%"}
    ]},
    {"compound": "Octylphenol ethoxylate [Triton X-165]", "values": [
      {"measurement": "cytotoxicity", "setting": "[4]", "result": "cytotoxic in itself"}
    ]},
    {"compound": "Polyethylene glycol 4-tert- octylphenyl ether [Triton X-45]", "values": [
      {"measurement": "HLB", "setting": "[2]", "result": 9.8}
    ]},
    {"compound": "Polyethylene glycol 4-tert-octylphenyl ether [Triton X-100 reduced]", "values": [
      {"measurement": "HLB", "setting": "[2]", "result": 9.8}
    ]},
    {"compound": "Polyethylene glycol tert- octylphenyl ether [Triton X-100]", "values": [
      {"measurement": "oil fraction at maximum stability (oil carrying capacity)", "setting": "[3]", "result": 70, "unit": "%"},
      {"measurement": "Turbiscan stability index (TSI)", "setting": "[5]; 75% v/v decane, mixing speed 1000 rpm", "result": 3.571},
      {"measurement": "Turbiscan stability index (TSI)", "setting": "[5]; 75% v/v decane, mixing speed 2000 rpm", "result": 2.601},
      {"measurement": "Turbiscan stability index (TSI)", "setting": "[5]; 75% v/v decane, mixing speed 3000 rpm", "result": 2.723},
      {"measurement": "Turbiscan stability index (TSI)", "setting": "[5]; 75% v/v decane, mixing speed 4000 rpm", "result": 3.213},
      {"measurement": "Turbiscan stability index (TSI)", "setting": "[5]; 75% v/v decane, mixing speed 5000 rpm", "result": 2.398},
      {"measurement": "Turbiscan stability index (TSI)", "setting": "[5]; 80% v/v decane, mixing speed 4000 rpm", "result": 9.886},
      {"measurement": "HLB", "setting": "[2]", "result": 13.4},
      {"measurement": "Turbiscan stability index (TSI)", "setting": "[6]; 70% v/v decane, mixing speed 1000 rpm", "result": 3.189},
      {"measurement": "Turbiscan stability index (TSI)", "setting": "[6]; 70% v/v decane, mixing speed 2000 rpm", "result": 2.758},
      {"measurement": "Turbiscan stability index (TSI)", "setting": "[6]; 70% v/v decane, mixing speed 3000 rpm", "result": 8.763},
      {"measurement": "Turbiscan stability index (TSI)", "setting": "[6]; 70% v/v decane, mixing speed 4000 rpm", "result": 3.637},
      {"measurement": "Turbiscan stability index (TSI)", "setting": "[6]; 70% v/v decane, mixing speed 5000 rpm", "result": 2.705},
      {"measurement": "Turbiscan stability index (TSI)", "setting": "[6]; 80% v/v decane, mixing speed 1000 rpm", "result": 2.483},
      {"measurement": "Turbiscan stability index (TSI)", "setting": "[6]; 80% v/v decane, mixing speed 2000 rpm", "result": 2.225},
      {"measurement": "Turbiscan stability index (TSI)", "setting": "[6]; 80% v/v decane, mixing speed 3000 rpm", "result": 2.493},
      {"measurement": "Turbiscan stability index (TSI)", "setting": "[6]; 80% v/v decane, mixing speed 5000 rpm", "result": 5.128}
    ]},
    {"compound": "Polyethylene glycol tert-octylphenyl ether [Triton X-114 reduced]", "values": [
      {"measurement": "HLB", "setting": "[2]", "result": 13.4}
    ]},
    {"compound": "Polyethylene glycol tert-octylphenyl ether [Triton X-114]", "values": [
      {"measurement": "oil fraction at maximum stability (oil carrying capacity)", "setting": "[3]", "result": 70, "unit": "%"},
      {"measurement": "HLB", "setting": "[2]", "result": 12.3}
    ]},
    {"compound": "Polyethylene glycol trimethylnonyl ether [Tergitol TMN-6]", "values": [
      {"measurement": "HLB", "setting": "[2]", "result": 13.1}
    ]},
    {"compound": "Polyethylene glycol trimethylnonyl ether [Tergitol TMN-10]", "values": [
      {"measurement": "HLB", "setting": "[2]", "result": 14.4}
    ]},
    {"compound": "Polyoxyethylene (40) isooctylphenyl ether [Triton X-405]", "values": [
      {"measurement": "oil fraction at maximum stability (oil carrying capacity)", "setting": "[3]", "result": 70, "unit": "%"},
      {"measurement": "HLB", "setting": "[2]", "result": 17.6}
    ]}
  ]
}
